According to patent US11629171B2, “Beta-hairpin peptidomimetics” (POLYPHOR AG, priority 2017, dated 2023):
Converted amounts (≈) assume the structure as drawn. Where a SMILES comes first, the peptide text is derived from it. Bridges are numbered along the chain shown (N, C = ends). Roman numbers before positions name the chains, in order. [ ]: non-standard residue; d: D form. Thr(ol) = C[C@@H](O)[C@H](N)CO; Pen = CC(C)(S)[C@H](N)C(=O)O; Tle = CC(C)(C)[C@H](N)C(=O)O; Hiv = CC(C)[C@H](O)C(=O)O; dDab = NCC[C@@H](N)C(=O)O; hSer = N[C@@H](CCO)C(=O)O; Dab = NCC[C@H](N)C(=O)O

Legend:
Assay type in all cases: cell-based
[1] = system: Acinetobacter baumannii 872842; details: 872842
Summary of the method: (§1)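 Peptides are tested in serial two-fold dilutions against about 10^6 CFU/mL in MH-II broth containing 0.002% P-80 (v/v, final). Plates incubate 18-20 h at 35° C, and the MIC is the lowest peptide level (μg/mL) showing no visible growth.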

[2] = system: Acinetobacter baumannii DSM 30008; details: DSM 30008
Summary of the method: as §1

[3] = system: Enterobacter cloacae 848840; details: 848840
Summary of the method: as §1

Escherichia coli 926415 = details: 926415
Summary of the method: as §1

[4] = system: Escherichia coli ATCC 25922; details: ATCC 25922
Summary of the method: as §1

[5] = system: Klebsiella pneumoniae 968733; details: 968733
Summary of the method: as §1

[6] = system: Klebsiella pneumoniae SSI #3010; details: SSI #3010
Summary of the method: as §1

[7] = system: Pseudomonas aeruginosa ATCC 27853; details: ATCC 27853
Summary of the method: as §1

[8] = system: human red blood cells (hRBC); assay: Hemolysis; details: red cells of human, 1 h, 200
Summary of the method: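 hRBC washed 4× in PBS; 200 μg/mL peptide + 20% (v/v) hRBC, 1 h, 37° C, 300 rpm. Spin, supernatant ~7.5-fold diluted, OD540 blank corrected. % hemolysis = OD540 peptide / OD540 Triton X-100 × 100.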

Structure (SMILES) | MIC [1] | MIC [2] | MIC [3] | MIC (Escherichia coli 926415) | MIC [4] | MIC [5] | MIC [6] | MIC [7] | Hemolysis at 200 μg/mL [8]
CC(C)C[C@@H]1NC(=O)[C@@H](CC(C)C)NC(=O)[C@H](CCN)NC(=O)[C@@H](NC(=O)[C@H](CCN)NC(=O)[C@@H](NC(=O)[C@H](CCN)NC(=O)CC[C@@H]2NC(=O)[C@H](CCN)NC(=O)[C@H](Cc3ccc(O)cc3)NC(=O)[C@@H](NC(=O)[C@@H](O)C(C)C)CSSC[C@@H](C(=O)N[C@H](CO)[C@@H](C)O)NC(=O)[C@H](C(C)(C)C)NC(=O)[C@H](CCO)NC(=O)[C@H](Cc3c[nH]c4ccccc34)NC(=O)[C@H](CO)NC(=O)[C@@H](CCN)NC2=O)[C@@H](C)O)CCNC(=O)[C@H]([C@@H](C)O)NC(=O)[C@H](CCN)NC(=O)[C@H](CCN)NC1=O [Ex. 83] (I: H-[Hiv]CY[Dab]E[dDab]SW[hSer][Tle]C[Thr(ol)] / II: [Dab]T[Dab][Dab][Dab][dL]L[Dab][Dab]T; disulfide I:2-I:11; amide I:5-II:N; lactam II:4-II:C) | 0.125 µg/mL (≈ 0.0521 µM) | 0.0625 µg/mL (≈ 0.026 µM) | 0.125 µg/mL (≈ 0.0521 µM) | 0.25 µg/mL (≈ 0.104 µM) | 0.0625 µg/mL (≈ 0.026 µM) | 0.25 µg/mL (≈ 0.104 µM) | 0.0625 µg/mL (≈ 0.026 µM) | 0.125 µg/mL (≈ 0.0521 µM) | <1%
CC(C)C[C@@H]1NC(=O)[C@@H](CC(C)C)NC(=O)[C@H](CCN)NC(=O)[C@@H](NC(=O)[C@H](CCN)NC(=O)[C@@H](NC(=O)[C@H](CCN)NC(=O)CC[C@@H]2NC(=O)[C@H](CCN)NC(=O)[C@H](Cc3ccc(O)cc3)NC(=O)[C@@H](NC(=O)[C@@H](O)C(C)C)C(C)(C)SSC[C@@H](C(=O)N[C@H](CO)[C@@H](C)O)NC(=O)[C@H](C(C)(C)C)NC(=O)[C@H](CO)NC(=O)[C@H](Cc3c[nH]c4ccccc34)NC(=O)[C@H](CCO)NC(=O)[C@@H](CCN)NC2=O)[C@@H](C)O)CCNC(=O)[C@H]([C@@H](C)O)NC(=O)[C@H](CCN)NC(=O)[C@H](CCN)NC1=O [Ex. 84] (I: H-[Hiv][Pen]Y[Dab]E[dDab][hSer]WS[Tle]C[Thr(ol)] / II: [Dab]T[Dab][Dab][Dab][dL]L[Dab][Dab]T; disulfide I:2-I:11; amide I:5-II:N; lactam II:4-II:C) | 0.125 µg/mL (≈ 0.0515 µM) | 0.125 µg/mL (≈ 0.0515 µM) | 0.25 µg/mL (≈ 0.103 µM) | 0.125 µg/mL (≈ 0.0515 µM) | 0.0625 µg/mL (≈ 0.0257 µM) | 0.125 µg/mL (≈ 0.0515 µM) | 0.125 µg/mL (≈ 0.0515 µM) | 0.25 µg/mL (≈ 0.103 µM) | <1%
CC(C)C[C@@H]1NC(=O)[C@@H](CC(C)C)NC(=O)[C@H](CCN)NC(=O)[C@@H](NC(=O)[C@H](CCN)NC(=O)[C@@H](NC(=O)[C@H](CCN)NC(=O)CC[C@@H]2NC(=O)[C@H](CCN)NC(=O)[C@H](Cc3ccc(O)cc3)NC(=O)[C@@H](NC(=O)[C@@H](O)C(C)C)CSSC(C)(C)[C@@H](C(=O)N[C@H](CO)[C@@H](C)O)NC(=O)[C@H](C(C)(C)C)NC(=O)[C@H](CO)NC(=O)[C@H](Cc3c[nH]c4ccccc34)NC(=O)[C@H](CCO)NC(=O)[C@@H](CCN)NC2=O)[C@@H](C)O)CCNC(=O)[C@H]([C@@H](C)O)NC(=O)[C@H](CCN)NC(=O)[C@H](CCN)NC1=O [Ex. 85] (I: H-[Hiv]CY[Dab]E[dDab][hSer]WS[Tle][Pen][Thr(ol)] / II: [Dab]T[Dab][Dab][Dab][dL]L[Dab][Dab]T; disulfide I:2-I:11; amide I:5-II:N; lactam II:4-II:C) | 0.25 µg/mL (≈ 0.103 µM) | 0.25 µg/mL (≈ 0.103 µM) | 0.125 µg/mL (≈ 0.0515 µM) | 0.25 µg/mL (≈ 0.103 µM) | 0.0625 µg/mL (≈ 0.0257 µM) | 0.25 µg/mL (≈ 0.103 µM) | 0.125 µg/mL (≈ 0.0515 µM) | 0.25 µg/mL (≈ 0.103 µM) | 1%
CC(=O)N[C@@H](C(=O)N[C@H]1CSSC[C@@H](C(=O)N[C@H](CO)[C@@H](C)O)NC(=O)[C@H](C(C)(C)C)NC(=O)[C@H](CO)NC(=O)[C@H](Cc2c[nH]c3ccccc23)NC(=O)[C@H](CCO)NC(=O)[C@@H](CCN)NC(=O)[C@H](CCC(=O)N[C@@H](CCN)C(=O)N[C@H](C(=O)N[C@@H](CCN)C(=O)N[C@H]2CCNC(=O)[C@H]([C@@H](C)O)NC(=O)[C@H](CCN)NC(=O)[C@H](CCN)NC(=O)[C@H](CC(C)C)NC(=O)[C@@H](CC(C)C)NC(=O)[C@H](CCN)NC2=O)[C@@H](C)O)NC(=O)[C@H](CCN)NC(=O)[C@H](Cc2ccc(O)cc2)NC1=O)C(C)C [Ex. 86] (I: Ac-[dV]CY[Dab]E[dDab][hSer]WS[Tle]C[Thr(ol)] / II: [Dab]T[Dab][Dab][Dab][dL]L[Dab][Dab]T; disulfide I:2-I:11; amide I:5-II:N; lactam II:4-II:C) | 0.25 µg/mL (≈ 0.102 µM) | 0.0625 µg/mL (≈ 0.0256 µM) | 1 µg/mL (≈ 0.41 µM) | 0.25 µg/mL (≈ 0.102 µM) | 0.125 µg/mL (≈ 0.0512 µM) | 0.125 µg/mL (≈ 0.0512 µM) | 0.125 µg/mL (≈ 0.0512 µM) | 0.125 µg/mL (≈ 0.0512 µM) | <1%
CC(C)C[C@@H]1NC(=O)[C@@H](CC(C)C)NC(=O)[C@H](CCN)NC(=O)[C@@H](NC(=O)[C@H](CCN)NC(=O)[C@@H](NC(=O)[C@H](CCN)NC(=O)CC[C@@H]2NC(=O)[C@H](CCN)NC(=O)[C@H](Cc3ccc(O)cc3)NC(=O)[C@@H](NC(=O)[C@@H](O)C(C)C)CSSC[C@@H](C(=O)N[C@H](CO)[C@@H](C)O)NC(=O)[C@H](C(C)(C)C)NC(=O)CNC(=O)[C@H](Cc3c[nH]c4ccccc34)NC(=O)[C@H](CCO)NC(=O)[C@@H](CCN)NC2=O)[C@@H](C)O)CCNC(=O)[C@H]([C@@H](C)O)NC(=O)[C@H](CCN)NC(=O)[C@H](CCN)NC1=O [Ex. 87] (I: H-[Hiv]CY[Dab]E[dDab][hSer]WG[Tle]C[Thr(ol)] / II: [Dab]T[Dab][Dab][Dab][dL]L[Dab][Dab]T; disulfide I:2-I:11; amide I:5-II:N; lactam II:4-II:C) | 0.25 µg/mL (≈ 0.105 µM) | 0.0625 µg/mL (≈ 0.0264 µM) | 2 µg/mL (≈ 0.844 µM) | 0.0625 µg/mL (≈ 0.0264 µM) | 0.0625 µg/mL (≈ 0.0264 µM) | 0.125 µg/mL (≈ 0.0527 µM) | 0.125 µg/mL (≈ 0.0527 µM) | 0.125 µg/mL (≈ 0.0527 µM) | <1%
CC(C)C[C@@H]1NC(=O)[C@@H](CC(C)C)NC(=O)[C@H](CCN)NC(=O)[C@@H](NC(=O)[C@H](CCN)NC(=O)[C@@H](NC(=O)[C@H](CCN)NC(=O)CC[C@@H]2NC(=O)[C@H](CO)NC(=O)[C@H](Cc3ccc(O)cc3)NC(=O)[C@@H](NC(=O)[C@@H](O)C(C)C)CSSC[C@@H](C(=O)N[C@H](CO)[C@@H](C)O)NC(=O)[C@H](C(C)(C)C)NC(=O)[C@H](CO)NC(=O)[C@H](Cc3c[nH]c4ccccc34)NC(=O)[C@H](CCO)NC(=O)[C@@H](CCN)NC2=O)[C@@H](C)O)CCNC(=O)[C@H]([C@@H](C)O)NC(=O)[C@H](CCN)NC(=O)[C@H](CCN)NC1=O [Ex. 88] (I: H-[Hiv]CYSE[dDab][hSer]WS[Tle]C[Thr(ol)] / II: [Dab]T[Dab][Dab][Dab][dL]L[Dab][Dab]T; disulfide I:2-I:11; amide I:5-II:N; lactam II:4-II:C) | 0.125 µg/mL (≈ 0.0523 µM) | 0.03125 µg/mL (≈ 0.0131 µM) | 0.125 µg/mL (≈ 0.0523 µM) | 0.125 µg/mL (≈ 0.0523 µM) | 0.0625 µg/mL (≈ 0.0262 µM) | 0.125 µg/mL (≈ 0.0523 µM) | 0.125 µg/mL (≈ 0.0523 µM) | 0.125 µg/mL (≈ 0.0523 µM) | <1%
